Target: T1, rPAPD5 (Homo sapiens, UniProt Q8NDF8)
T1 construct: made in house
Test: differential scanning fluorimetry (DSF) binding and stabilization of rPAPD5
Details: 100 μM test compound; shift vs DMSO control; read-out: ΔTm at 100 μM
Method: Binding and stabilization of rPAPD5 by test compounds was determined using differential scanning fluorimetry (DSF). DSF assays were performed to determine protein melting temperature using an indicator dye SYPRO orange (Thermo Fisher Scientific, S6651) diluted 1:5000 in […] of buffer containing […], […] (Jena Biosciences), 25 mM Tris-HCl, 5 mM MgCl2, 50 mM KCl. […] DMSO was used as a negative control. Each curve was an average of three measurements and Thermal Shift software (Thermo Fisher Scientific, 4466038) was used for analysis. […] The change in melting temperature (ΔTm) is in reference to the DMSO control. Referring to Table 2, “+” refers to ΔTm values below 1° C., “++” refers to ΔTm values from 1 to 5° C., and “+++” refers to ΔTm values above 5° C.

T1 sequence (Q8NDF8 68-698 isoform Q8NDF8-5 limits assumed): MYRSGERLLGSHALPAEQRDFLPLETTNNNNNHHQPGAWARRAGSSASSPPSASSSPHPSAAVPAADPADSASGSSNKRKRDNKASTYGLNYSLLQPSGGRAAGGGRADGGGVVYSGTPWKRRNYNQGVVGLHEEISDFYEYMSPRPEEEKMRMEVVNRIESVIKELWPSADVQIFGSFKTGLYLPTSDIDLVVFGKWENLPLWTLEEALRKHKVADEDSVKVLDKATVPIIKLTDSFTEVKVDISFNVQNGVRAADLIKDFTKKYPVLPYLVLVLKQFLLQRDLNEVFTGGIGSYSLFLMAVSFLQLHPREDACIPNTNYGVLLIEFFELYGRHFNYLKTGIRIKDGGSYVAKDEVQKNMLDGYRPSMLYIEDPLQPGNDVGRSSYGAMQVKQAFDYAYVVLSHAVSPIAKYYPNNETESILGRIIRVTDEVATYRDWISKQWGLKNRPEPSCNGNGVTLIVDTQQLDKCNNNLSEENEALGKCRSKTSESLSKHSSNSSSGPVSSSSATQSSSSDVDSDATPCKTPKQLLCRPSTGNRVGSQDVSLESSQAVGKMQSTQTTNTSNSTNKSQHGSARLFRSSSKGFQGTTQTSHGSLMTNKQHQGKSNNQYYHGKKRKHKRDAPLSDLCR

SMILES | ΔTm at 100 µM
Cn1ncc2ccc(-c3ccc4ncc(S(=O)(=O)N5CCOCC5)c(Nc5ccccc5C(=O)O)c4c3)cc21 [Compound 177A, 2-[[6-(1-methylindazol-6-yl)-3-morpholinosulfonyl-4-quinolyl]amino]benzoic acid] | 1 to 5 °C
O=C(O)c1ccccc1Nc1c(S(=O)(=O)N2CCOCC2)cnc2ccc(-c3ccc(-n4cccn4)cc3)cc12 [Compound 178A, 2-[[3-morpholinosulfonyl-6-(4-pyrazol-1-ylphenyl)-4-quinolyl]amino]benzoic acid] | 1 to 5 °C
CS(=O)(=O)Nc1ccc(-c2ccc3ncc(S(=O)(=O)N4CCOCC4)c(Nc4ccccc4C(=O)O)c3c2)cc1 [Compound 179A, 2-[[6-[4-(methanesulfonamido)phenyl]-3-morpholinosulfonyl-4-quinolyl]amino]benzoic acid] | 1 to 5 °C
CN1CCN(c2ccc(-c3ccc4ncc(S(=O)(=O)N5CCOCC5)c(Nc5ccccc5C(=O)O)c4c3)cc2)CC1 [Compound 180A, 2-[[6-[4-(4-methylpiperazin-1-yl)phenyl]-3-morpholinosulfonyl-4-quinolyl]amino]benzoic acid] | < 1 °C
O=C(O)c1ccccc1Nc1c(S(=O)(=O)N2CCOCC2)cnc2ccc(-c3ccc4[nH]cnc4c3)cc12 [Compound 182A, 2-[[6-(1H-benzimidazol-5-yl)-3-morpholinosulfonyl-4-quinolyl]amino]benzoic acid] | 1 to 5 °C
O=C(O)c1ccccc1Nc1c(NC2CCOCC2)cnc2ccc(Cl)cc12 [Compound 184A, 2-[[6-chloro-3-(tetrahydropyran-4-ylamino)-4-quinolyl]amino]benzoic acid] | > 5 °C
O=C(O)c1ccccc1Nc1c(NC2CCNCC2)cnc2ccc(Cl)cc12 [Compound 186A, 2-[[6-chloro-3-(4-piperidylamino)-4-quinolyl]amino]benzoic acid] | 1 to 5 °C
O=C(O)c1ccccc1Nc1c(NC2CCS(=O)(=O)CC2)cnc2ccc(Cl)cc12 [Compound 188A, 2-[[6-chloro-3-[(1,1-dioxothian-4-yl)amino]-4-quinolyl]amino]benzoic acid] | > 5 °C
O=C(O)c1ccccc1Nc1c(Nc2cncnc2)cnc2ccc(Cl)cc12 [Compound 191A, 2-[[6-chloro-3-(pyrimidin-5-ylamino)-4-quinolyl]amino]benzoic acid] | > 5 °C
O=C(O)c1ccccc1Nc1c(C2CCOCC2)cnc2c1CCCC2 [Compound 204A-BP, 2-[(3-tetrahydropyran-4-yl-5,6,7,8-tetrahydroquinolin-4-yl)amino]benzoic acid] | > 5 °C
O=C(O)c1ccccc1Nc1c(C2CCC(F)(F)CC2)cnc2ccc(Cl)cc12 [Compound 205A, 2-[[6-chloro-3-(4,4-difluorocyclohexyl)-4-quinolyl]amino]benzoic acid] | > 5 °C
O=C(O)c1ccccc1Nc1c(C2=CCNCC2)cnc2ccc(Cl)cc12 [Compound 206A-INT, 2-[[6-chloro-3-(1,2,3,6-tetrahydropyridin-4-yl)-4-quinolyl]amino]benzoic acid] | > 5 °C
CN1CC=C(c2cnc3ccc(Cl)cc3c2Nc2ccccc2C(=O)O)CC1 [Compound 207A-INT, 2-[[6-chloro-3-(1-methyl-3,6-dihydro-2H-pyridin-4-yl)-4-quinolyl]amino]benzoic acid] | > 5 °C

The next lines start with the values.

ΔTm at 100 µM | SMILES
> 5 °C | O=C(O)c1ccccc1Nc1c(C2CCNCC2)cnc2ccc(Cl)cc12 [Compound 206A, 2-[[6-chloro-3-(4-piperidyl)-4-quinolyl]amino]benzoic acid]
> 5 °C | CN1CCC(c2cnc3ccc(Cl)cc3c2Nc2ccccc2C(=O)O)CC1 [Compound 207A, 2-[[6-chloro-3-(1-methyl-4-piperidyl)-4-quinolyl]amino]benzoic acid]
> 5 °C | O=C(O)c1ccccc1Nc1c(C2CCS(=O)(=O)CC2)cnc2ccc(Cl)cc12 [Compound 208A, 2-[[6-chloro-3-(1,1-dioxothian-4-yl)-4-quinolyl]amino]benzoic acid]
1 to 5 °C | O=C(O)c1ccccc1Nc1c(C2=CCS(=O)(=O)CC2)cnc2ccc(Cl)cc12 [Compound 208A-INT, 2-[[6-chloro-3-(1,1-dioxo-3,6-dihydro-2H-thiopyran-4-yl)-4-quinolyl]amino]benzoic acid]
> 5 °C | O=C(O)c1ccccc1Nc1c(-c2ccncc2)cnc2ccc(Cl)cc12 [Compound 209A, 2-[[6-chloro-3-(4-pyridyl)-4-quinolyl]amino]benzoic acid]
> 5 °C | O=C(O)c1ccccc1Nc1c(-c2nccs2)cnc2ccc(Cl)cc12 [Compound 211A, 2-[(6-chloro-3-thiazol-2-yl-4-quinolyl)amino]benzoic acid]
1 to 5 °C | O=C(O)c1ccccc1Nc1c(-c2cnoc2)cnc2ccc(Cl)cc12 [Compound 212A, 2-[(6-chloro-3-isoxazol-4-yl-4-quinolyl)amino]benzoic acid]
> 5 °C | O=C(O)c1ccccc1Nc1c(S(=O)(=O)NC2CCOCC2)cnc2ccc(Cl)cc12 [Compound 216A, 2-[[6-chloro-3-(tetrahydropyran-4-ylsulfamoyl)-4-quinolyl]amino]benzoic acid]
> 5 °C | O=C(O)c1ccccc1Nc1c(S(=O)(=O)NC2CCC(F)(F)CC2)cnc2ccc(Cl)cc12 [Compound 217A, 2-[[6-chloro-3-[(4,4-difluorocyclohexyl)sulfamoyl]-4-quinolyl]amino]benzoic acid]
1 to 5 °C | CN1CCC(NS(=O)(=O)c2cnc3ccc(Cl)cc3c2Nc2ccccc2C(=O)O)CC1 [Compound 219A, 2-[[6-chloro-3-[(1-methyl-4-piperidyl)sulfamoyl]-4-quinolyl]amino]benzoic acid]
> 5 °C | O=C(O)c1ccccc1Nc1c(S(=O)(=O)N2CCS(=O)(=O)CC2)cnc2ccc(Cl)cc12 [Compound 220A, 2-[[6-chloro-3-[(1,1-dioxo-1,4-thiazinan-4-yl)sulfonyl]-4-quinolyl]amino]benzoic acid]
> 5 °C | O=C(O)c1ccccc1Nc1c(S(=O)(=O)Nc2ccncc2)cnc2ccc(Cl)cc12 [Compound 221A, 2-[[6-chloro-3-(4-pyridylsulfamoyl)-4-quinolyl]amino]benzoic acid]
> 5 °C | NS(=O)(=O)c1ccc(NS(=O)(=O)c2cnc3ccc(Cl)cc3c2Nc2ccccc2C(=O)O)cc1 [Compound 231A, 2-[[6-chloro-3-[(4-sulfamoylphenyl)sulfamoyl]-4-quinolyl]amino]benzoic acid]
> 5 °C | O=C(O)c1ccccc1Nc1c(Br)cnc2ccc(Cl)cc12 [Compound 232A, 2-[(3-bromo-6-chloro-4-quinolyl)amino]benzoic acid]
> 5 °C | O=C(O)c1ccccc1Nc1c(S(=O)(=O)N2CCOCC2)cnc2ccc(C(F)(F)F)cc12 [Compound 234A, 2-[[3-morpholinosulfonyl-6-(trifluoromethyl)-4-quinolyl]amino]benzoic acid]
1 to 5 °C | CC(=O)NS(=O)(=O)c1ccc2ncc(S(=O)(=O)N3CCOCC3)c(Nc3ccccc3C(=O)O)c2c1 [Compound 235A, 2-[[6-(acetylsulfamoyl)-3-morpholinosulfonyl-4-quinolyl]amino]benzoic acid]
> 5 °C | O=C(O)c1ccccc1Nc1c(S(=O)(=O)N2CCOCC2)cnc2ccc(OC(F)F)cc12 [Compound 236A, 2-[[6-(difluoromethoxy)-3-morpholinosulfonyl-4-quinolyl]amino]benzoic acid]
